Source: patent publication US10899770B2, “Crystal form of ACP-196 salt and preparation method, pharmaceutical composition, and use thereof” (Hangzhou SoliPharma Co., Ltd., priority 2017, dated 2021)
Counter-ions that a name gives are not always drawn.

Assays:
Solubility test in water = type: physicochemical; settings: for solubility compared with amorphous ACP-196 (ACP-196 of Preparation Example 1): in water, Comparative Example 1; for solubility / Solubility test results: water, 20 mg sample, 25° C. water bath, water added until completely dissolved (not more than 200 mL); for solubility: 25 °C, thermodynamic from solid
Procedure: Solubility test: took 20 mg ACP-196 of Preparation Example 1, 20 mg ACP-196 malate Form 1 of the invention, 20 mg ACP-196 hemifumarate Form 1 of the invention, 20 mg ACP-196 maleate Form 1 of the invention, 20 mg ACP-196 phosphate Form 1 of the invention and 20 mg ACP-196 sulfate Form 1 of the invention, then placed in the beaker respectively added 1.0 mL water, stirred for 1 to 2 minutes under the condition of 25° C. water bath, observed and if not totally dissolved, added water (not more than 200 mL in total) until it's completely dissolved.

[1] = Isothermal sorption (dynamic vapor sorption), weight change with relative humidity; type: physicochemical; settings: for hygroscopicity compared with amorphous ACP-196: 30 to 80% RH; for weight change (isothermal sorption plot): between 30% and 80% relative humidity
Procedure: Dynamic vapor sorption data and isothermal sorption data were collected on TA Instruments Q5000 TGA. Method: A sample of 1 to 10 mg was placed in a platinum pan; the weight change of the sample during the change in relative humidity from 0% to 80% to 0% was measured.

SMILES	solubility compared with amorphous ACP-196 (ACP-196 of Preparation Example 1) (Solubility test in water)	solubility (Solubility test in water) [mg/mL]	hygroscopicity compared with amorphous ACP-196 [1]	Solubility test results (Solubility test in water)	weight change (isothermal sorption plot) [1] [%]	weight change (isothermal sorption plot) ([1]; listed as amorphous ACP-196) [%]
CC#CC(=O)N1CCC[C@H]1c1nc(-c2ccc(C(=O)Nc3ccccn3)cc2)c2c(N)nccn12.O=C(O)/C=C/C(=O)O [ACP-196 hemifumarate Form 1]	higher solubility	0.91	less hygroscopic			
CC#CC(=O)N1CCC[C@H]1c1nc(-c2ccc(C(=O)Nc3ccccn3)cc2)c2c(N)nccn12 [ACP-196 malate Form 1]	higher solubility			1.43 mg/mL		
CC#CC(=O)N1CCC[C@H]1c1nc(-c2ccc(C(=O)Nc3ccccn3)cc2)c2c(N)nccn12.O=C(O)/C=C\C(=O)O [ACP-196 maleate Form 1]	higher solubility	1.33	less hygroscopic			
CC#CC(=O)N1CCC[C@H]1c1nc(-c2ccc(C(=O)Nc3ccccn3)cc2)c2c(N)nccn12 [ACP-196 phosphate Form 1]	higher solubility		less hygroscopic			
CC#CC(=O)N1CCC[C@H]1c1nc(-c2ccc(C(=O)Nc3ccccn3)cc2)c2c(N)nccn12 [ACP-196 sulfate Form 1]	higher solubility					
CC#CC(=O)N1CCC[C@H]1c1nc(-c2ccc(C(=O)Nc3ccccn3)cc2)c2c(N)nccn12 [ACP-196]				Less than 0.1 mg/mL	5.5	5.5
